According to US7521397B2, “Disubstituted pyrazolyl carboxanilides” (Bayer CropScience AG, priority 2002, dated 2009):
Read-outs that look alike come from different tables or passages of the source.

Tests used:
Alternaria solani = assay: Alternaria test (tomato)/protective; type: in vivo; conditions: protective spray, application rate 750 g/ha, evaluation 7 days after inoculation
Description: [table] To produce a suitable preparation of active compound, 1 part by weight of active compound is mixed with the stated amounts of solvent and emulsifier, and the concentrated is diluted with water to the desired concentration. To test for protective activity, young tomato plants are sprayed with the preparation of active compound at the stated application rate. 1 day after the treatment, the plants are inoculated with a spore suspension of Alternaria solani and are then kept at 100% relative atmospheric humidity and 20° C. for 24 h. The plants are then kept at 96% relative atmospheric humidity and a temperature of 20° C. Evaluation is carried out 7 days after the inoculation. 0% means an efficacy which corresponds to that of the control, whereas an efficacy of 100% means that no infection is observed.

Sphaerotheca fuliginea = assay: Sphaerotheca test (cucumber)/protective; type: in vivo; conditions: Podosphaera fuliginea, topical, 168 h, protective spray, application rate 100 g/ha, evaluation 7 days after inoculation, read-out: Efficacy in %
Description: (§1) [table] To produce a suitable preparation of active compound, 1 part by weight of active compound is mixed with the stated amounts of solvent and emulsifier, and the concentrate is diluted with water to the desired concentration. To test for protective activity, young plants are sprayed with the preparation of active compound at the stated application rate. After the spray coating has dried on, the plants are inoculated with an aqueous spore suspension of the Sphaerotheca fuliginea. The plants are then placed in a greenhouse at about 23° C. and a relative atmospheric humidity of about 70%. Evaluation is carried out 7 days after the inoculation. 0% means an efficacy which corresponds to that of the control, whereas an efficacy of 100% means that no infection is observed.

[1] = logP determination by HPLC on reverse-phase column (EEC Directive 79/831 Annex V.A8); type: physicochemical; conditions: reverse-phase C18 HPLC column
Description: The logP values given in the tables and Preparation Examples above are determined in accordance with EEC Directive 79/831 Annex V.A8 by HPLC (High Performance Liquid Chromatography) on a reverse-phase column (C 18). Temperature: 43° C. In the acidic range, the determination is carried out at pH 2.3 using the mobile phases 0.1% aqueous phosphoric acid and acetonitrile; linear gradient from 10% acetonitrile to 90% acetonitrile. Calibration is carried out using unbranched alkan-2-ones (of 3 to 16 carbon atoms) with known logP values (determination of the logP values by the retention times using linear interpolation between two successive alkanones).

Podosphaera leucotricha = assay: Podosphaera test (apple)/protective; type: in vivo; conditions: topical, 240 h, protective spray, application rate 100 g/ha, evaluation 10 days after inoculation, read-out: Efficacy in %
Description: as §1, with “of the apple mildew pathogen Podosphaera leucotricha. The plants” for “of the Sphaerotheca fuliginea. The plants”, “carried out 10 days after” for “carried out 7 days after”

Venturia inaequalis = assay: Venturia test (apple)/protective; type: in vivo; conditions: topical, 240 h, protective spray, application rate 100 g/ha, evaluation 10 days after inoculation, read-out: Efficacy in %
Description: as §1, with “conidia” for “spore”, “apple scab pathogen Venturia inaequalis and then remain in an incubation cabin at about 20° C. and 100% relative atmospheric humidity for 1 day.” for “Sphaerotheca fuliginea.”, “21°” for “23°”, “90%.” for “70%.”, “10” for “7”

[2] = pH 2.3, 43° C., preparation examples, read-out: logP (pH 2.3)
[3] = Table 1, 43° C., acidic range pH 2.3, read-out: logP

**Q.** For `Cn1cc(C(=O)Nc2c(F)cccc2-c2ccc(Cl)c(Cl)c2)c(C(F)(F)F)n1` [Example 1, N-(3′,4′-dichloro-3-fluoro-1,1′-biphenyl-2-yl)-1-methyl-3-(trifluoromethyl)-1H-pyrazole-4-carboxamide], which Efficacy in % (Alternaria solani) is on record?
**A.** 100%

**Q.** What about the pest or weed control at 100 g/ha (Sphaerotheca fuliginea) of the same compound?
**A.** 100%

**Q.** And the chromatographic logP [1, 2]?
**A.** 3.1

**Q.** And the pest or weed control at 100 g/ha (Podosphaera leucotricha)?
**A.** 100%

**Q.** And the pest or weed control at 100 g/ha (Venturia inaequalis)?
**A.** 100%

**Q.** With `Cn1cc(C(=O)Nc2c(F)cccc2-c2ccc(F)c(Cl)c2)c(C(F)(F)F)n1` [Example 2] as the compound, how does the Efficacy in % (Alternaria solani) read?
**A.** 100%

**Q.** And the chromatographic logP [1, 2]?
**A.** 3.04

**Q.** With `Cn1cc(C(=O)Nc2cc(F)ccc2-c2ccc(Cl)c(Cl)c2)c(C(F)(F)F)n1` [Example 3] as the compound, how does the Efficacy in % (Alternaria solani) read?
**A.** 100%

**Q.** And the pest or weed control at 100 g/ha (Sphaerotheca fuliginea)?
**A.** 100%

**Q.** What about the chromatographic logP [1, 3] of the same compound?
**A.** 3.75

**Q.** What about the pest or weed control at 100 g/ha (Podosphaera leucotricha) of the same compound?
**A.** 100%

**Q.** And the pest or weed control at 100 g/ha (Venturia inaequalis)?
**A.** 100%

**Q.** For `Cn1cc(C(=O)Nc2cc(F)ccc2-c2ccc(F)c(Cl)c2)c(C(F)(F)F)n1` [Example 4], which Efficacy in % (Alternaria solani) is on record?
**A.** 100%

**Q.** And the pest or weed control at 100 g/ha (Sphaerotheca fuliginea)?
**A.** 99%

**Q.** And the chromatographic logP [1, 3]?
**A.** 3.51

**Q.** What about the pest or weed control at 100 g/ha (Podosphaera leucotricha) of the same compound?
**A.** 100%

**Q.** And the pest or weed control at 100 g/ha (Venturia inaequalis)?
**A.** 100%

**Q.** For `Cn1cc(C(=O)Nc2ccc(F)cc2-c2ccc(Cl)c(Cl)c2)c(C(F)(F)F)n1` [Example 5], which Efficacy in % (Alternaria solani) is on record?
**A.** 100%

**Q.** What about the pest or weed control at 100 g/ha (Sphaerotheca fuliginea) of the same compound?
**A.** 100%

**Q.** And the chromatographic logP [1, 3]?
**A.** 3.57

**Q.** And the pest or weed control at 100 g/ha (Podosphaera leucotricha)?
**A.** 100%

**Q.** What about the pest or weed control at 100 g/ha (Venturia inaequalis) of the same compound?
**A.** 100%

**Q.** Which results are given for `Cn1cc(C(=O)Nc2ccc(F)cc2-c2ccc(F)c(Cl)c2)c(C(F)(F)F)n1` [Example 6]?
**A.** Efficacy in % (Alternaria solani): 100%; pest or weed control at 100 g/ha (Sphaerotheca fuliginea): 98%; chromatographic logP [1, 3]: 3.26; pest or weed control at 100 g/ha (Podosphaera leucotricha): 100%; pest or weed control at 100 g/ha (Venturia inaequalis): 100%

**Q.** With `Cn1cc(C(=O)Nc2c(F)cccc2-c2ccc(Cl)c(Cl)c2)c(C(F)F)n1` [Example 7] as the compound, how does the pest or weed control at 100 g/ha (Sphaerotheca fuliginea) read?
**A.** 100%

**Q.** And the chromatographic logP [1, 3]?
**A.** 3.1

**Q.** What about the pest or weed control at 100 g/ha (Podosphaera leucotricha) of the same compound?
**A.** 100%

**Q.** And the pest or weed control at 100 g/ha (Venturia inaequalis)?
**A.** 100%

**Q.** Which pest or weed control at 100 g/ha (Sphaerotheca fuliginea) does the source give for `Cn1cc(C(=O)Nc2cc(F)ccc2-c2ccc(Cl)c(Cl)c2)c(C(F)F)n1` [Example 9] here?
**A.** 94%

**Q.** What about the chromatographic logP [1, 3] of the same compound?
**A.** 3.55

**Q.** What about the pest or weed control at 100 g/ha (Podosphaera leucotricha) of the same compound?
**A.** 83%

**Q.** What about the pest or weed control at 100 g/ha (Venturia inaequalis) of the same compound?
**A.** 99%

**Q.** For `Cn1cc(C(=O)Nc2cc(F)ccc2-c2ccc(F)c(Cl)c2)c(C(F)F)n1` [Example 10], which pest or weed control at 100 g/ha (Sphaerotheca fuliginea) is on record?
**A.** 100%

**Q.** And the chromatographic logP [1, 3]?
**A.** 3.29

**Q.** What about the pest or weed control at 100 g/ha (Podosphaera leucotricha) of the same compound?
**A.** 100%

**Q.** What about the pest or weed control at 100 g/ha (Venturia inaequalis) of the same compound?
**A.** 100%

**Q.** Which pest or weed control at 100 g/ha (Sphaerotheca fuliginea) does the source give for `Cn1cc(C(=O)Nc2ccc(F)cc2-c2ccc(Cl)c(Cl)c2)c(C(F)F)n1` [Example 11] here?
**A.** 100%

**Q.** And the chromatographic logP [1, 3]?
**A.** 3.33

**Q.** And the pest or weed control at 100 g/ha (Podosphaera leucotricha)?
**A.** 100%

**Q.** And the pest or weed control at 100 g/ha (Venturia inaequalis)?
**A.** 100%

**Q.** Which results are given for `Cn1cc(C(=O)Nc2ccc(F)cc2-c2ccc(F)c(Cl)c2)c(C(F)F)n1` [Example 12]?
**A.** pest or weed control at 100 g/ha (Sphaerotheca fuliginea): 100%; chromatographic logP [1, 3]: 3.07; pest or weed control at 100 g/ha (Podosphaera leucotricha): 100%; pest or weed control at 100 g/ha (Venturia inaequalis): 100%

**Q.** For `Nc1c(F)cccc1-c1ccc(Cl)c(Cl)c1` [Example (III-1), 3′,4′-dichloro-3-fluoro-1,1′-biphenyl-2-amine], which chromatographic logP [1, 2] is on record?
**A.** 4.09

**Q.** For `Nc1ccc(F)cc1-c1ccc(Cl)c(Cl)c1` [Example (III-2), 3′,4′-Dichloro-5-fluoro-1,1′-biphenyl-2-amine], which chromatographic logP [1, 2] is on record?
**A.** 3.62

**Q.** Which chromatographic logP [1, 2] does the source give for `Cn1cc(C(=O)Nc2c(F)cccc2Br)c(C(F)(F)F)n1` [Example (IV-1)] here?
**A.** 2.12
